According to ChEMBL document CHEMBL4130587, “Chemical Compounds as Inhibitors of Kinase Activity for the Treatment of Cancer and COPD” (ACS Med Chem Lett, 2017):

Legend:
[1] = target: T1, Phosphatidylinositol 4,5-bisphosphate 3-kinase catalytic subunit delta isoform (Homo sapiens, UniProt O00329); assay: Inhibition of GST-tagged PI3Kdelta […] (unknown origin) using PIP2 as subtrate after 1 hr in presence of biotin-labeled PIP3 by TR-FRET assay
T1 sequence (O00329 whole entry): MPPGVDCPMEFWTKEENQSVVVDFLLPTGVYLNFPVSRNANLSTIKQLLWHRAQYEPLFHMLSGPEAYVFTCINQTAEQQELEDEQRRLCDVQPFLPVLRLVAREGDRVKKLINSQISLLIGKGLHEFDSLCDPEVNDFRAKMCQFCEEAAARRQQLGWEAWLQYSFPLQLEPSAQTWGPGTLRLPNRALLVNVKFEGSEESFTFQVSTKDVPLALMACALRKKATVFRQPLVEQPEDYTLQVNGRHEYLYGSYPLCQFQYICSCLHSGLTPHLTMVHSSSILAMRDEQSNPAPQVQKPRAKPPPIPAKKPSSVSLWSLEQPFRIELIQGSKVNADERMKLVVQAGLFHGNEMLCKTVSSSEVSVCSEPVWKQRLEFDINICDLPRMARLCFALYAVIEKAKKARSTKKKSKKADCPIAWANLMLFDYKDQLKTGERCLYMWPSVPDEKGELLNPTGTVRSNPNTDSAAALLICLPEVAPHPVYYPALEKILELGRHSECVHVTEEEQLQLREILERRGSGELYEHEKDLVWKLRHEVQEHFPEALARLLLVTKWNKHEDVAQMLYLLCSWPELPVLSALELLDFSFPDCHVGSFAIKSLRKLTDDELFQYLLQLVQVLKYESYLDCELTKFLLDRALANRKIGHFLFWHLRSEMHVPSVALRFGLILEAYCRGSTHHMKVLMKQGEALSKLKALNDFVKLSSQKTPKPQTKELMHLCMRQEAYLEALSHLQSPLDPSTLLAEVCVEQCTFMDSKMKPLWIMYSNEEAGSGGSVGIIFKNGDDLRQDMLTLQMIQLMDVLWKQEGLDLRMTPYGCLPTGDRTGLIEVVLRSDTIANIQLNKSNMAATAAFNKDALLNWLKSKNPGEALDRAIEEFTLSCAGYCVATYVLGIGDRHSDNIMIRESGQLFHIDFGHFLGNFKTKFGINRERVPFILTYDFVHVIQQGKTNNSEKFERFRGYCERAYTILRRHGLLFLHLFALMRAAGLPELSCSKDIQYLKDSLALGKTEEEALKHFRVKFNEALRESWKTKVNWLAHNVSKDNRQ

[2] = target: Phosphatidylinositol 4,5-bisphosphate 3-kinase catalytic subunit gamma isoform (Homo sapiens, UniProt P48736); assay: Inhibition of GST-tagged PI3Kgamma […] (unknown origin) using PIP2 as subtrate after 1 hr in presence of biotin-labeled PIP3 by TR-FRET assay
Sequence of Phosphatidylinositol 4,5-bisphosphate 3-kinase catalytic subunit gamma isoform (P48736 whole entry, canonical isoform): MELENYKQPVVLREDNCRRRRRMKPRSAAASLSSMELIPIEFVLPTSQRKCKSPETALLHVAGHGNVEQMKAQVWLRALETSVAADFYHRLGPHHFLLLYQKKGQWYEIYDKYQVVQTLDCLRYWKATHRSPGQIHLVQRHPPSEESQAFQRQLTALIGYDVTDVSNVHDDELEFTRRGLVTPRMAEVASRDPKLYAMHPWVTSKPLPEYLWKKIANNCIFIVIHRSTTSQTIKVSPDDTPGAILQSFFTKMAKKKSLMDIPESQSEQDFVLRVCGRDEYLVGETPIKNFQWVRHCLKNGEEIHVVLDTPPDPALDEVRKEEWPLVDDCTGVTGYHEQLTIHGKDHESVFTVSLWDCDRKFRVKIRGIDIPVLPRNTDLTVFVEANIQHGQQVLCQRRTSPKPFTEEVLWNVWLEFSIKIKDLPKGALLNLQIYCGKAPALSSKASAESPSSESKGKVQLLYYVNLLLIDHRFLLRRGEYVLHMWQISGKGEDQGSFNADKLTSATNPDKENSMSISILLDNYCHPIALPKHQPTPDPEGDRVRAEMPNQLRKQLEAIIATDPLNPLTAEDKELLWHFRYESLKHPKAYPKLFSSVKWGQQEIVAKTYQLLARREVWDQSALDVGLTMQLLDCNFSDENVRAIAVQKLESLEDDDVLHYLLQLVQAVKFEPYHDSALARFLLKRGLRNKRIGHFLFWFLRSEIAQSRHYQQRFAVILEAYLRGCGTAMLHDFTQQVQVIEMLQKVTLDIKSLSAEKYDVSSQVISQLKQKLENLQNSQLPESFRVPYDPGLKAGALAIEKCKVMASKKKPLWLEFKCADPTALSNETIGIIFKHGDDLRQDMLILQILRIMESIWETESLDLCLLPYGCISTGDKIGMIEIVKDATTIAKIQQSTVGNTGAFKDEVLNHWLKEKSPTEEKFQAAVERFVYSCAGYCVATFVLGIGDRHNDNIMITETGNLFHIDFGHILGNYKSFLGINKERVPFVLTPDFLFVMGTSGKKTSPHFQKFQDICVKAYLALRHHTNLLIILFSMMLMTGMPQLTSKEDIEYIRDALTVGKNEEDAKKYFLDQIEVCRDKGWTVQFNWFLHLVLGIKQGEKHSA

[3] = target: Phosphatidylinositol 4,5-bisphosphate 3-kinase catalytic subunit beta isoform (Homo sapiens, UniProt P42338); assay: Inhibition of GST-tagged PI3Kbeta […] (unknown origin) using PIP2 as subtrate after 1 hr in presence of biotin-labeled PIP3 by TR-FRET assay
Sequence of Phosphatidylinositol 4,5-bisphosphate 3-kinase catalytic subunit beta isoform (P42338 whole entry, canonical isoform): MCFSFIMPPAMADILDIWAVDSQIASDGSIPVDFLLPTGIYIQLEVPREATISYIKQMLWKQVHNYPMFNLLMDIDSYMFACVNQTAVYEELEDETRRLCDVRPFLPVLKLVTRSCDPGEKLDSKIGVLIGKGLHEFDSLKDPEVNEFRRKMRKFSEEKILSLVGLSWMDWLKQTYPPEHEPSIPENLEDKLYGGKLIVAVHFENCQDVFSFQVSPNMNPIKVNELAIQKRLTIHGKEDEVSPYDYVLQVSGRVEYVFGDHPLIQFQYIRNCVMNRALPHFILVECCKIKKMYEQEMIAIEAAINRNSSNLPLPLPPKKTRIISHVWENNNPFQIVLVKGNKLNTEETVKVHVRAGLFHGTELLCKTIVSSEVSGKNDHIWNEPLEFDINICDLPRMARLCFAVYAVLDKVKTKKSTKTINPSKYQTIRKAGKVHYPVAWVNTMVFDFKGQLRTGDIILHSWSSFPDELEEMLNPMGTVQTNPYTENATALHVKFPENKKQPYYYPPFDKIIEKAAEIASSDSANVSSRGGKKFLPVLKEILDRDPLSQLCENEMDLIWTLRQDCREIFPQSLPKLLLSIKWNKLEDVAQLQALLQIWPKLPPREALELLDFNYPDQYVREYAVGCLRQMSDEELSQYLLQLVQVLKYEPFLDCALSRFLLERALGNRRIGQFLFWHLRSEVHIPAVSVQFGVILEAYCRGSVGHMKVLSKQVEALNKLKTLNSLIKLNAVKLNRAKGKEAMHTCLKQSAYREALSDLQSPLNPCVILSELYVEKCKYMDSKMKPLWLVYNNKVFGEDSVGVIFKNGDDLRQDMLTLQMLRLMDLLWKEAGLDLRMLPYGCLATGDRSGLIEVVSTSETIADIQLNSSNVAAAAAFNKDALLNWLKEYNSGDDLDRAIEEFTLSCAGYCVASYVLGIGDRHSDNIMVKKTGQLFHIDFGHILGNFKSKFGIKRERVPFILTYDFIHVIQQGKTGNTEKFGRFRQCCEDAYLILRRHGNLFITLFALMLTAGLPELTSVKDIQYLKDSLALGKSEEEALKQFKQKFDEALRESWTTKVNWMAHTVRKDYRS

[4] = target: Phosphatidylinositol 4,5-bisphosphate 3-kinase catalytic subunit alpha isoform (Homo sapiens, UniProt P42336); assay: Inhibition of GST-tagged PI3Kalpha […] (unknown origin) using PIP2 as subtrate after 1 hr in presence of biotin-labeled PIP3 by TR-FRET assay
Sequence of Phosphatidylinositol 4,5-bisphosphate 3-kinase catalytic subunit alpha isoform (P42336 whole entry, canonical isoform): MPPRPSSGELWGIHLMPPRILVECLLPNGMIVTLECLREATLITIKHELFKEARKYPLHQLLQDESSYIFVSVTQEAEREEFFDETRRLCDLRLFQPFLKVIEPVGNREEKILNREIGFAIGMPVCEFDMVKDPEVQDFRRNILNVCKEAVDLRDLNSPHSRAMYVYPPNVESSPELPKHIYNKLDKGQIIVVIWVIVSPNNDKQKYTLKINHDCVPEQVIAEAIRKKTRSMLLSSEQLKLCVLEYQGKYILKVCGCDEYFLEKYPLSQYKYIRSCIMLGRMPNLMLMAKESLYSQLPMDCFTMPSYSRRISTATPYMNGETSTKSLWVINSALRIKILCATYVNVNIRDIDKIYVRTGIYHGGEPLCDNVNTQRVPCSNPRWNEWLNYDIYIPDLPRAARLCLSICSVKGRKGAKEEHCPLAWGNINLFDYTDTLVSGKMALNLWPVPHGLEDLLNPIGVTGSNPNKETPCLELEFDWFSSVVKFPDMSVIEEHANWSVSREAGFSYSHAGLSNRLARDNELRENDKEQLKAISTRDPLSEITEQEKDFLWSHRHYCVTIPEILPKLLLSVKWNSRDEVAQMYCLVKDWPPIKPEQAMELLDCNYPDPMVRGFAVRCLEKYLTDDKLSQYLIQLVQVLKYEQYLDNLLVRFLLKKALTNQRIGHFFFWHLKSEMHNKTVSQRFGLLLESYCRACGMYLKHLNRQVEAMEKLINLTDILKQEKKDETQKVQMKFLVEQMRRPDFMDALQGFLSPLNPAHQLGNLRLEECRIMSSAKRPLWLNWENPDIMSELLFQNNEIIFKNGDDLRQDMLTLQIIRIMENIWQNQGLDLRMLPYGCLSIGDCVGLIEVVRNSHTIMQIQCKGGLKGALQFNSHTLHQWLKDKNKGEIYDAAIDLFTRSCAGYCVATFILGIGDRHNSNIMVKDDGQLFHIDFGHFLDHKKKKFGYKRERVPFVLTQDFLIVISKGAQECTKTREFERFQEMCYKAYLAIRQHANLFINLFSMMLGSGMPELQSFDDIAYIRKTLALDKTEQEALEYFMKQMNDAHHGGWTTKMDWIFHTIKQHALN

Measured: IC50

COc1ncc(N2CCOCC2)cc1S(=O)(=O)Nc1ccnc(-c2ccc(CN3CCN(C4COC4)CC3)cc2)c1
≤ 10 µM: [1] | [2] | [3] | [4]

COc1ncc(N2CCOCC2)cc1S(=O)(=O)Nc1ccnc(-c2ccc(CN3CCCC3)c(F)c2)c1
≤ 10 µM: [1] | [2] | [3] | [4]

COc1ncc(N2CCOCC2)cc1S(=O)(=O)Nc1ccnc(-c2ccc(CN3CCN(C(C)C)CC3)c(F)c2F)c1
≤ 10 µM: [1] | [2] | [3] | [4]

COc1ncc(N2CCOCC2)cc1S(=O)(=O)Nc1ccnc(-c2ccc(CN3CCN(C4COC4)CC3)cc2F)c1
≤ 10 µM: [1] | [2] | [3] | [4]

COc1ncc(N2CCOCC2)cc1S(=O)(=O)Nc1ccnc(-c2ccc(CN3CCCC3)cc2F)c1
≤ 10 µM: [1] | [2] | [3] | [4]

COc1ncc(N2CCOCC2)cc1S(=O)(=O)Nc1ccnc(-c2cc(F)c(CN3CCN(C(C)C)CC3)c(F)c2)c1
≤ 10 µM: [1] | [2] | [3] | [4]
